{"source": "patent US20080262080A1", "about": "“Allergy Suppressive Agent” (KYUSHU UNIVERSITY, NATIONAL UNIVERSITY CORPORATION, priority 2004, published 2008)", "key": {"[1]": {"system": "FcεRI α- and γ-chains", "assay": "Expression levels of the proteins constituting FcεRI (α- and γ-chains) in KU812 cells, immunoprecipitation and blotting", "type": "cell-based, human", "settings": "serum-free, 6 hours, β-actin control", "description": "The expression of each of the FcεRI α- and γ-chains was detected by collecting cells having been incubated by adding chrysin, lysing the cells, conducting immunoprecipitation, subjecting the immunoprecipitate to DS-PAGE and then blotting. β-Actin was employed as a control.\nKU812 cells (1×10^6 cells/mL) were incubated under serum-free conditions in RPMI 1640 medium, to which chrysin had been added, for 6 hours. After incubating, the cells were washed with PBS once and then lysed by shaking together with Lysis buffer (composition: 50 mM Tris-HCl pH 7.5, 1% Triton X-100, 150 mM NACl, 1 mM EDTA, 50 mM NaF, 30 mM Na4P2O7, 1 mM PMSF, 2 μg/mL aprotinin, 1 mM pervandate) at 4° C. for 30 min. Subsequently, the mixture was centrifuged at 12,000×g for 10 min at 4° C. to precipitate insoluble matters. The supernatant was collected and proteins were quantified. The samples were diluted with Lysis buffer so that all of them had the same protein concentration, thereby giving lysate samples.\nProtein A Sepharose beads (Amersham Pharmacia Biotech) were shaken in Lysis buffer (composition: 50 mM Tris-HCl pH 7.5, 150 mM NACl, 1% Triton X-100, 1 mM EDTA, 50 mM NaF, 30 mM Na4P2O7, 1 mM PMSF, 2 μg/mL aprotinin), to which CRA-1 antibody had been added to give a final concentration of 1 μg/mL, for 2 to 4 hours at 4° C. so as to allow the beads to adsorb CRA-1 antibody. […]"}, "[2]": {"system": "high-affinity IgE receptor (FcεRI)", "assay": "FcεRI expression amount on the cell surface of KU812 cells by flow cytometry", "type": "cell-based, human", "settings": "for FcεRI expression suppressive rate (%): 24 hours", "description": "By using antihuman FcRI antibody (CRA1), the FcεRI expression amount on the surface of human basophil-like cell line KU812 cells was analyzed by flow cytometry. Cells having been incubated by adding DMSO alone were compared with cells having been incubated by adding chrysin. The ratio of overexpression of FcεRI is indicated in percentage. As a basal medium for incubating cells, use was made of RPMI 1640 (Nissui, Japan), to which 100 U/mL of penicillin (Meiji Pharmaceutical Company, Tokyo, Japan), […] of streptomycin (Meiji Pharmaceutical Company, Tokyo, Japan), 12.5 mM of MaHCO3 (Wako Pure Chemical Industries, Osaka, Japan) and 10 mM of HEPES Wako Pure Chemical Industries) had been added. Fetal bovine serum (FBS) purchased form Bio Source International was added to the basal medium to give a concentration of 5 to 10%. Human basophil-like cell line KU812 employed in this experiment was assigned by Japan Collection of Research Bioresources (JCRB) and subcultured and maintained in RPMI 1640 medium comprising 5 to 10% of FBS at 37° C. in 5% CO2 gas under humidification. KU812 cells were incubated in RPMI 1640 medium, to which chrysin dissolved in DMSO had been added, for 0 to 24 hours. A system wherein the cells were incubated in the medium comprising DMSO alone was used as a control. After incubating, the cells were collected and incubated in 5% FBS-PBS, to which 10 μg/mL of antihuman FcεRI α chain mouse monoclonal antibody CRA-1 (Kyokuto Pharmaceutical) had been added, at 4° C. for 40 to 60 min. As a negative control, 10 μg/mL of mouse control IgG2b antibody (DAKO) was used. Then, the cells were washed with ice-cooled PBS once and incubated in 5% FBS-PBS, to which 10 μg/mL of antimouse IgG2b FITC-labeled antibody (Protos Immunoresearch) had been added, at 4° C. for 40 to 60 min. After incubating, the cells were washed with PBS and then resuspended in PBS. The cell suspension thus obtained was analyzed by flow cytometry. In the flow cytometry analysis, FACS Calibur (Becton Sickinson, Sunnyvale, Calif.) was employed. The secondary antibody reaction and the subsequent procedures were conducted in the dark and the cells were preserved on ice while conducting the analysis. KU812 cells (5×10^5 cells/mL) was incubated in 5% bovine fetal serum comprising RPMI 1640 medium, to which chrysin (0, 1, 5 and 10 μM) and apigenin (purchased from Aldrich Chem. Co., St. Louis, Mo.; 0, 1, 5 and 10 μM) had been added, for 24 hours. After incubating, the FcεRI expression level on the cell surface was measured by flow cytometry (experimental procedure: see [0047])."}}}
{"smiles": "O=c1cc(-c2ccccc2)oc2cc(O)cc(O)c12", "note": "[Chrysin, 5,7-dihydroxyflavone]", "values": [{"measurement": "expression of the proteins constituting FcεRI (α- and γ-chains)", "setting": "[1]", "result": "suppressive effect"}, {"measurement": "FcεRI expression amount on cell surface", "setting": "[2]; flow cytometry with CRA1 antibody, compared with DMSO alone", "result": "lowering"}, {"measurement": "FcεRI expression suppressive rate (%)", "setting": "[2]; single agent 1 μM", "result": 0, "unit": "%"}, {"measurement": "FcεRI expression suppressive rate (%)", "setting": "[2]; single agent 5 μM", "result": 11.5, "unit": "%"}, {"measurement": "FcεRI expression suppressive rate (%)", "setting": "[2]; single agent 10 μM", "result": 19.8, "unit": "%"}]}
